Assay results from patent US20050153395A1, “Unique integrin binding site in connective tissue growth factor (CTGF)” (CHILDREN'S HOSPITAL INC., priority 2003, published 2005).

Legend:
CTGF promoter = CTGF promoter luciferase reporter pCCN2-Luc in PSCs; format: cell-based, rat; settings: P<0.01 compared with no stimulation
Experimental: TGF-β1 is a well characterized transcriptional activator of CTGF in other cell types. To further examine the mechanism by which TGF-β1 and other fibrogenic stimulators could influence CTGF production in PSCs, CTGF promoter activity in PSCs was evaluated using the luciferase reporter, pCCN2-Luc, as described in Gao et al., (J Hepatol 2004;40:431-8).

[1] = system: hepatic stellate cells (HSC); assay: HSC adhesion assay on coated wells (CyQUANT fluorescence); format: cell-based, rat; settings: for HSC adhesion supported by the coated substance: coated at 2 μg/ml; for effect of divalent cation on HSC adhesion to CTGF4: 10 mM cation, after EDTA; for inhibition of CTGF4-mediated HSC adhesion: wells coated 2 μg/ml CTGF4, antibody/IgG 25 μg/ml, heparin 2 μg/ml
Experimental: CTGF4 is known to be expressed in hepatic stellate cells (HSC) and to induce proliferation and extracellular matrix (ECM) production in these cells. (Williams et al., J Hepatol 32, 754-761, 2000; Paradis et al., Lab Invest 82, 767-774, 2002). The following experiments were carried out to determine if HSCs adhere to CTGF. HSCs were isolated from normal Sprague-Dowley rate by sequential perfusion with pronase/collagenase and purified by density gradient separation as described in Vyas et al. (Gastroenterology 109: 889-898, 1995).
The cells were subsequently detached using 1 mM EDTA PBS (137 mM NaCl, 2.7 mM KCl, 4.3 mM Na2HPO4, 1.4 mM KH2PO4, pH 7.3), washed twice in DMEM and resuspended in serum free medium containing 0.5% BSA. The cells-were plated (1.25×10^4 cells/well) in a 96 well plate coated with one of the following: 2 μg/ml CTGF isoform (CTGF1-4, CTGF3-4, CTGF4), 1 μg/ml laminin, or 4 μg/ml vitronectin and incubated for 20 minutes at 37° C. Subsequently the cells were washed with PBS and the adherent cells were fixed with 10% formalin and stained with CyQUANT GR dye/cell lysis buffer (Molecular Probes , Eugene, Oreg.) according to the manufacturer's instructions. The number of cells that adhered to CTGF isoforms or ECM protein was quantified by measuring the sample fluorescence intensity at Ex/Em: 480/520 nm using a micro-plate reader (CytoFluor™ 2350).
To determine if the CTGF-mediated HSC adhesion was carried out through integrin receptors, the experiment described above were carried out in the presence and absence of 10 mM EDTA. […] It is widely believed that Mn^2+ induces conformational shifts that mimic the physiological activation of β1 and β3 integrins (Roberts et al., J Biol Chem 278: 1975-1985, 2003, van der Pauw et al., J Periodontal Res 37: 317-323, 2002) as Mn^2+-induced activation leads to enhanced ligand-binding affinity and cell adhesion (Mould et al., J Biol Chem 277: 19800-19805, 2002, Loftus & Liddington J Clin Invest 100: S77-81, 1997, Lin et al., J Biol Chem 272: 14236-14243, […]).
Synthetic peptides GRGDsp (1 mM), GRGEsp (1 mM), Echistatin (2 μM) or vehicle buffer alone were added to the, HSC culture medium 30 minutes prior to plating.
In addition, adhesion assays as described in Example 1 were carried out in CTGF4 coated plates in the presence and absence of monoclonal antibody specific for αvβ3 (LM609).

[2] = system: pancreatic stellate cells (PSC); assay: PSC adhesion assay on coated wells; format: cell-based, rat; settings: for inhibition of PSC adhesion to CTGF4: 2 μg/ml CTGF4 coat, EDTA 5 mM, antibodies 25 μg/ml, heparin 2 μg/ml, peptides 35 μM; for PSC adhesion supported by the coated substance: coated at 2 μg/ml; for inhibition of FN-mediated PSC adhesion: fibronectin coat; for restoration of CTGF-mediated PSC adhesion after EDTA: 10 mM cation, 5 mM EDTA
Excerpt: Rat PSCs were isolated by a modification of the method described by Phillips et al., Gut; 52:677-82, 2003. Briefly, pancreatic tissue was digested in situ with 0.03% collagenase P (Roche, Indianapolis, Ind.) in HBSS by perfusion through the thoracic aorta. This protocol was approved by the Institutional Animal Care and Use Committee of Children's Research Institute, Columbus, Ohio. The tissue was pooled, minced with scissors, and then digested with 0.05% collagenase P, 0.02% protease XIV (Sigma, St. Louis), and DNase I (Roche, Indianapolis, Ind.) in HBSS. The resulting cell suspension was centrifuged in a 12% Optiprep gradient at 1400 g for 14 minutes. Stellate cells separated into a hazy band just above the interface of a the gradient and the aqueous buffer. This band was harvested, and the cells washed and resuspended in DMEM supplemented with 25 mM Hepes buffer, 10% FBS, and 100 U/ml penicillin in, 100 μg/ml streptomycin. The, cells were maintained at 37° C. in a humidified atmosphere of 5% CO2/95% air.
The ability of activated PSC to adhere to non-tissue culture plastic microtiter wells coated with recombinant CTGF1-4, CTGF3-4 or CTGF4 was investigated. The solid phase binding assay was carried out as described in Example 2. […] To assess the possibility that CTGF-mediated PSC adhesion involved cell surface integrins, the effect of divalent cations on cell adhesion was examined, as described in Example 2. […]
Because CTGF is a heparin-binding protein, this property was further investigated.
To identify the peptides that bind to PSCs, cell adhesion assays were carried out as described in Example 3.
To further investigate the peptide binding, P2 or P5 (10 μM) or vehicle buffer alone (no add) were added to PSC cell suspensions for 30 minutes at room temperature.

integrin α5β1 = integrin α5β1 (Homo sapiens, UniProt P05556+P08648); assay: Solid phase ELISA of integrin α5β1 binding; settings: for inhibition of cell-free binding of integrin α5β1 to FN: FN 4 μg/ml; for reversal of EDTA inhibition of α5β1 binding to CTGF4: 10 mM cation
Experimental: In a second approach, a solid phase binding assay was used in which CTGF1-4 or FN were individually coated onto microtiter wells that were subsequently incubated with purified integrin α5β1. The presence of immobilized integrin α5β1 was detected by ELISA using an anti-integrin α5β1 antibody similar to the methods described in Example 3 above. In addition, CTGF1-4 bound to integrin α5β1 in a dose-dependent manner, with maximal binding at 2 μg/ml CTGF. This level of CTGF1-4 (2 μg/ml) binding was the same as that elicited by 2 μg/ml FN, a well known ligand of integrin α5β1. In a similar experiment, 2 μg/ml of CTGF1-4;CTGF3-4 or CTGF4 were individually precoated onto microtiter wells. Using the solid-phase assay, integrin α5β1 bound to CTGF1-4, CTGF3-4 or CTGF4 See FIG. 5 (Panel B).
To directly analyze whether α5β1 integrin binds to CTGF4, microtiter wells coated with CTGF4 (2 μg/ml) or FN (4 μg/ml) were used in an ELISA assay to detect integrin binding, as described in Example 3. For these assays, 1 μg/ml integrin α5β1, alone or in the presence of 35 μM of P2peptide (CTGF[257-272]) and 35 μM of P5 peptide (CTGF [285-291]), were added to the precoated plates. […] The binding between CTGF4 and integrin α5 β1 was blocked by peptide P5 (CTGF [285-291]) or peptide P2 (CTGF[257-272]). […]

integrin αvβ3 = integrin αvβ3 (Homo sapiens, UniProt P05106+P06756); assay: Solid phase ELISA of integrin αvβ3 binding; settings: for inhibition of αvβ3 binding to CTGF4: 35 μM peptide pre-incubated with 1 μg/ml αvβ3
Experimental: Solid phase binding studies were also performed to investigate the binding of CTGF isoforms and αvβ3. Each CTGF isoform or vitronectin was individually coated onto microtiter wells at different concentrations, and the subsequent binding of αvβ3 was detected by ELISA using an anti-human αvβ3 monoclonal antibody. […] Saturation of binding occurred at 2 μg/ml for each CTGF isoform and 4 μg/ml for vitronectin.
In order to identify the αvβ3 binding site in CTGF4, eighteen synthetic peptides spanning the entire C-terminal region of CTGF4 (residues 246-349 of SEQ ID NO: 1) were synthesized and used as potential blocking agents in the solid phase binding studies as described in Example 3. Microtiter wells (Dynex Technology) were pre-coated with different CTGF isoforms at desired concentrations at 4° C. for 16 hours, and then blocked with 2% BSA at room temperature for 2 hours. The plates were washed, four times with PBS, pH 7.3, containing 1 mM CaCl2 and 1 mM MgCl2. Integrin αvβ3 (1 μg/ml) was pre-incubated with each synthetic peptide for 1 hour in blocking solution, and then added to each well, and incubated at room temperature for 3 hours. Integrin αvβ3 was detected by successive incubation with anti-human αvβ3 monoclonal antibody diluted in blocking solution (1:1000), and followed by HRP-conjugated goat anti-mouse IgG (1:4000). The color reaction was developed using the horseradish peroxidase ELISA reagents (Chemicon), and the absorbance at 450 nm was measured using Bio Assay Reader (HTS700).
The ability of mutant CTGF4 to bind to integrin αvβ3 was assessed by solid phase ELISA which measured the ability of purified integrin αvβ3 to bind to the CTGF4 mutants.

PSCs [3] = assay: PSC DNA synthesis, [3H]thymidine incorporation; format: cell-based, rat; settings: 24 hours; CTGF1-4 effect in 0.1% serum, not in serum-free medium
Experimental: To measure the effect of CTGF on cell proliferation, DNA synthesis was measured by ^3H incorporation in PSCs. The cells were incubated for 24 hours with 0.2 μCi [^3H] thymidine in each well (24-well plate). The incorporation of [^3H] thymidine into PSC DNA was determined using a scintillation counter after the cells had been washed with PBS, fixed with 10% methanol, treated with cold 5% trichloroacetic acid, and lysed in 0.3 N NaOH.

PSCs [4] = assay: PSC chemotaxis (migration) assay in culture insert; format: cell-based, rat; settings: substance in lower chamber
Experimental: To examine whether CTGF plays a role in PSC migration, a chemotaxis assay was carried out in which the migratory behavior of PSCs in the upper chamber of a culture insert was assessed following addition of CTGF to the lower chamber. […] PSC migration was also promoted by FN, PDGF or TGF-β1.

[5] = EDTA 10 mM, GRGDsp 1 mM, Echistatin 2 μM

Chain of integrin α5β1 (P08648 42-894 limits assumed): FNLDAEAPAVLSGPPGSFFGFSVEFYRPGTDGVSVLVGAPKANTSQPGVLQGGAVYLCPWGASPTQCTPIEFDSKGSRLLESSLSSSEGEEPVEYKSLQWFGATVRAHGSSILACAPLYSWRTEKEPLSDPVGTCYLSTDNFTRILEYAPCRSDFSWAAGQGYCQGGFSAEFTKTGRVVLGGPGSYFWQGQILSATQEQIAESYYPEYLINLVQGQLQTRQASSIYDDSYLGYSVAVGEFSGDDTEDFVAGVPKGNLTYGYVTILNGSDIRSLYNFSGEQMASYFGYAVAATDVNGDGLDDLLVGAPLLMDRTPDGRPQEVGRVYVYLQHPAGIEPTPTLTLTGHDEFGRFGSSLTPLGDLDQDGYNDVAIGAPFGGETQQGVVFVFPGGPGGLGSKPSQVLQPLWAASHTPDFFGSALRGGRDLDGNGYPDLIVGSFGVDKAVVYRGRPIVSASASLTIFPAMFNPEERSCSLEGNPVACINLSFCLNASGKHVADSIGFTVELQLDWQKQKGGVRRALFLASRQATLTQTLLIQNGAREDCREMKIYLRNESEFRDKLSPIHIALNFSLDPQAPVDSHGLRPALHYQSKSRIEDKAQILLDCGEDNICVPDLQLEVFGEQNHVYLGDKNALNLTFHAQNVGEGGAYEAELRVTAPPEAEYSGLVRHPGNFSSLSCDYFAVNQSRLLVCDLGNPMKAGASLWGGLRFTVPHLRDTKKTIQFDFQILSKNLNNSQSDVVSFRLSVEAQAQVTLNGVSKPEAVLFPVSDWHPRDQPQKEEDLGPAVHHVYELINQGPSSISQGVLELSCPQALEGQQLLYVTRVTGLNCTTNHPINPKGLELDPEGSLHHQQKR
Chain of integrin α5β1 (P08648 895-1049 partner limits assumed): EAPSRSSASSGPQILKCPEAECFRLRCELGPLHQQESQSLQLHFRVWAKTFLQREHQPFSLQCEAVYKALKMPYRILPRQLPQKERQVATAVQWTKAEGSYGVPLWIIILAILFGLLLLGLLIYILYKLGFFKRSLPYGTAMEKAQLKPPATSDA
Chain of integrin α5β1 (P05556 21-798): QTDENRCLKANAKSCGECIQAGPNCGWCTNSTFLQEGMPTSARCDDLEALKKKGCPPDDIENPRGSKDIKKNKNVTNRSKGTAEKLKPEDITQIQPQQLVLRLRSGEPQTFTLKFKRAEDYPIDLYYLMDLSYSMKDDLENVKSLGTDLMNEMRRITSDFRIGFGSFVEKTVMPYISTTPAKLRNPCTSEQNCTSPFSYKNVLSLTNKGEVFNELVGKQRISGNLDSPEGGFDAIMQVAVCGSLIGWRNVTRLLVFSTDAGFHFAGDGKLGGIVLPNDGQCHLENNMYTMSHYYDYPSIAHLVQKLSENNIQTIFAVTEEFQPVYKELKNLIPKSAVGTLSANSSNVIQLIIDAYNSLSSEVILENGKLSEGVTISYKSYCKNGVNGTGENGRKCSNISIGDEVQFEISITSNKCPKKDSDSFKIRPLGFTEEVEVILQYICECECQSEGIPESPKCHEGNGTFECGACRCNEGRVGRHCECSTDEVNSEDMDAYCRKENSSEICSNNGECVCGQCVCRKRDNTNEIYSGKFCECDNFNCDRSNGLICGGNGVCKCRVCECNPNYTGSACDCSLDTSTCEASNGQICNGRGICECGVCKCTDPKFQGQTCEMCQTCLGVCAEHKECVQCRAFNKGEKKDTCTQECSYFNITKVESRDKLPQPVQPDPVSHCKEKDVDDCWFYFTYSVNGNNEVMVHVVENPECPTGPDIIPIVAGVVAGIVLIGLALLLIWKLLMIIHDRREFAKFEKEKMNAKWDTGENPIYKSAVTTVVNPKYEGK
Chain of integrin αvβ3 (P06756 31-889 limits assumed): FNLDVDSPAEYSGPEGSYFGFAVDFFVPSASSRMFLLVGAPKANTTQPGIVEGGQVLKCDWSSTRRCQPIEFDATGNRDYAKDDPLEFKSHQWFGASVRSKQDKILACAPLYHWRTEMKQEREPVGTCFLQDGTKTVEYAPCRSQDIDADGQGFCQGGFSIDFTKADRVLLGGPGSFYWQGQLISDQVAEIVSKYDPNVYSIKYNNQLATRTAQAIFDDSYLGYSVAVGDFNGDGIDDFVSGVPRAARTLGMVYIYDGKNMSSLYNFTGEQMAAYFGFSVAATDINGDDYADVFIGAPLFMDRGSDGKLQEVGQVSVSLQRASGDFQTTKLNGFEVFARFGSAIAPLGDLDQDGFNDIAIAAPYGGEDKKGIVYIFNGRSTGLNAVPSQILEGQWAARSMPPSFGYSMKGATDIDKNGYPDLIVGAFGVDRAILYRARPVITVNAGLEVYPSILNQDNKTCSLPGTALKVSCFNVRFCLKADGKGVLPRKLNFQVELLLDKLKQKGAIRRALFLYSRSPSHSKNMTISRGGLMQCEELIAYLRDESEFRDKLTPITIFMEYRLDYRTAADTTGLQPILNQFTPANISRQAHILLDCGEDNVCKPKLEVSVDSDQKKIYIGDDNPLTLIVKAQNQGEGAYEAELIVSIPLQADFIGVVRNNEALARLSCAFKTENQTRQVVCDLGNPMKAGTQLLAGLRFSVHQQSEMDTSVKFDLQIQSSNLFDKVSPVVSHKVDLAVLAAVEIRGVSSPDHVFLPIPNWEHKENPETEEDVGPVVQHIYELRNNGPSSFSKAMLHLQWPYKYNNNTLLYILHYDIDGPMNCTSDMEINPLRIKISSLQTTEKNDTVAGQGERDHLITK
Chain of integrin αvβ3 (P06756 891-1048 partner limits assumed): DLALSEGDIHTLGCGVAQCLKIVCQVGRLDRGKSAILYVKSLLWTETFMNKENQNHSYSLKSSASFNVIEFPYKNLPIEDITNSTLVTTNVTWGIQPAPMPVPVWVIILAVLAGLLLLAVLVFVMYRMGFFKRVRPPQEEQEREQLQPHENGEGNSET
Chain of integrin αvβ3 (P05106 27-788): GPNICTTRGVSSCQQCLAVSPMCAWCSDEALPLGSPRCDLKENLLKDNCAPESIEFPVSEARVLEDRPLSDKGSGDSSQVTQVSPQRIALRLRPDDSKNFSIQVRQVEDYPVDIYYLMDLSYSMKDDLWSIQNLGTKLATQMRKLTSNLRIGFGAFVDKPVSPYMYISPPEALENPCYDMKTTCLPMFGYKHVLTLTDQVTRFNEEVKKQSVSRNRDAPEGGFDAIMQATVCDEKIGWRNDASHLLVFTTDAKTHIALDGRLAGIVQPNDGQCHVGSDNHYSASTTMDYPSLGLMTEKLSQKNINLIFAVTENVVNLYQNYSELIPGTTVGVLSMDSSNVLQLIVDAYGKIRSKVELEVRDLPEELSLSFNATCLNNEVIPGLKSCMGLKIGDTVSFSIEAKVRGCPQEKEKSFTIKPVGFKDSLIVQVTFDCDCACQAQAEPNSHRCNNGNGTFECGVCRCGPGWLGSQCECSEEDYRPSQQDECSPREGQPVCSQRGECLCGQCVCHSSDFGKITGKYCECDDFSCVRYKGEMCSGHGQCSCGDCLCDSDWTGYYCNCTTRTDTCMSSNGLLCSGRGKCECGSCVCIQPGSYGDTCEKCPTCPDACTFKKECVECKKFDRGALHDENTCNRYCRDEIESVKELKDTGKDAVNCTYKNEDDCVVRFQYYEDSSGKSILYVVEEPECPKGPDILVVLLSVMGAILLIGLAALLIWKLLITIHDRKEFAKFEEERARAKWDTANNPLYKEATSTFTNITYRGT

Compound: CCO [ethanol]
- activity of pCCN2-Luc in PSC (CTGF promoter): significantly increased

Compound: EENIKKGKKCIRTP (listed as Homo sapiens) [CTGF[247-260]]
- HSC adhesion supported by the coated substance [1]: no adhesion ability

Compound: IRTPKISKPIKFELSG [CTGF[257-272]]
- inhibition of PSC adhesion to CTGF4 [2]: completely inhibited
- PSC adhesion supported by the coated substance [2]: able to support the adhesion
- inhibition of FN-mediated PSC adhesion [2]: unaffected
- HSC adhesion to coated peptide, saturation [1]: 2 µg/mL
- HSC adhesion supported by the coated substance [1]: promoted HSC adhesion in a concentration-dependent manner
- inhibition of cell-free binding of integrin α5β1 to FN (integrin α5β1; peptides 35 μM): did not block
- inhibition of αvβ3 binding to CTGF4 (integrin αvβ3): completely inhibited
- inhibition of αvβ3 binding to vitronectin (integrin αvβ3; 35 μM peptide, 4 μg/ml VN coat): 85%

Compound: [Mg+2] [Mg^2+]
- restoration of CTGF-mediated PSC adhesion after EDTA [2]: restored
- effect of divalent cation on HSC adhesion to CTGF4 [1]: restored
- reversal of EDTA inhibition of α5β1 binding to CTGF4 (integrin α5β1): reversed

Compound: PDGF
- PSC proliferation (DNA synthesis) (PSCs [3]): significantly enhanced
- activity of pCCN2-Luc in PSC (CTGF promoter): significantly increased
- PSC migration (PSCs [4]): promoted

Compound: [Mn+2] [Mn^2+]
- effect of divalent cation on HSC adhesion to CTGF4 [1]: restored

Compound: CTGF[259-272]: CTGF4 peptide that covers 87.5% of the sequence of peptide CTGF[257-272] (TPKISKPIKFELSG)
- inhibition of αvβ3 binding to CTGF4 (integrin αvβ3): 67%

Compound: chondroitinase ABC
- inhibition of CTGF4-mediated HSC adhesion [1, 5]: no effect

Compound: IRTPAAAAPIKFELSG [Mutant 2, mutant CTGF4 protein with K261A, I262A, S263A, K264A]
- HSC adhesion relative to wild-type CTGF4 ([1]; mutant CTGF4 proteins): completely unable to support HSC adhesion

Compound: GVCTDGR [Peptide P5]
- inhibition of PSC adhesion to CTGF4 [2]: completely inhibited
- PSC adhesion supported by the coated substance [2]: able to support the adhesion
- inhibition of FN-mediated PSC adhesion [2]: able to block
- inhibition of binding between CTGF4 and integrin α5β1 (integrin α5β1; peptides 35 μM, EDTA 5 mM): blocked
- inhibition of cell-free binding of integrin α5β1 to FN (integrin α5β1; peptides 35 μM): blocked

Compound: vitronectin: ECM protein, known ligand of αvβ3 [reference compound]
- saturation of αvβ3 binding at coating concentration (integrin αvβ3; 1 μg/ml integrin αvβ3): 4 µg/mL

Compound: GRGDsp
- inhibition of CTGF1-4-mediated HSC adhesion ([1]; wells coated 2 μg/ml CTGF1-4, EDTA 10 mM, GRGDsp 1 mM, Echistatin 2 μM): 45%
- inhibition of CTGF3-4-mediated HSC adhesion ([1]; wells coated 2 μg/ml CTGF3-4, EDTA 10 mM, GRGDsp 1 mM, Echistatin 2 μM): 51%
- inhibition of CTGF4-mediated HSC adhesion [1, 5]: 58%

Compound: CC=O [acetaldehyde]
- activity of pCCN2-Luc in PSC (CTGF promoter): significantly increased

Compound: [Ca+2] [Ca^2+]
- restoration of CTGF-mediated PSC adhesion after EDTA [2]: restored
- effect of divalent cation on HSC adhesion to CTGF4 [1]: completely abolished
- reversal of EDTA inhibition of α5β1 binding to CTGF4 (integrin α5β1): reversed

Compound: [Na+].[O-][Cl+2]([O-])[O-] [sodium chlorate]
- inhibition of CTGF4-mediated HSC adhesion [1, 5]: Inability of HSC to adhere to CTGF4
- inhibition of vitronectin-mediated HSC adhesion ([1]; wells coated 4 μg/ml vitronectin): unaffected
